Experimental data reported in US20260294890A1, “LONG-TERM PREVENTION AND/OR TREATMENT OF A DISEASE BY SLO-1 INHIBITORS” (Elanco Animal Health GmbH, priority 2023, published 2026).

Assay: Assay 1: half-life and plasma clearance upon intravenous administration to beagle dogs
Assay type: in vivo
Details: iv dose up to 0.3 mg/kg, Phoenix PK/PD (Example 1: internal tool); for clearance / half-life: dog, geometric mean; for half-life: read-out: Half-life (h/Form) iv, geometric mean (converted)
Description: Assay 1: Determination of Half-Life and Plasma Clearance of Compounds of the Invention Upon Administration to Beagle Dogs
Compounds according to the invention were administered as an intravenous (iv) dose (up to 0.3 mg/kg) to beagle dogs (minimum n=3). Blood samples were collected from these beagle dogs up to 168 h after intravenous administration and up to 3024 h after subcutaneous administration. A portion of each whole blood sample was processed to plasma. Compound concentrations were determined in plasma using LCMS/MS. Phoenix™ Pharmacokinetic and Pharmacodynamic (PK/PD) was used to determine half-life and plasma clearance values. Only for Example 1, an internal tool available to the inventors was used to determine the half-life and plasma clearance values.

Row | Compound | clearance (plasma) | half-life (plasma) | Plasma Clearance, geometric mean | Half-life (h/Form) iv, geometric mean (plasma)
1 | CCc1c(C(=O)N[C@H]2CCOc3ccccc32)cnc2c(-c3cc(F)cc(F)c3F)c(F)ccc12 [Example 1, N-[(4S)-3,4-Dihydro-2H-chromen-4-yl]-4-ethyl-7-fluoro-8-(2,3,5-trifluorophenyl)quinoline-3-carboxamide] | 10 mL/min/kg | 3120 min | – | –
2 | Cc1nn2c(C(C)C)c(C(=O)N[C@H]3CCc4ccccc43)cnc2c1-c1cc(Cl)c(F)c(Cl)c1 [Example 2, (S)-3-(3,5-dichloro-4-fluorophenyl)-N-(2,3-dihydro-1H-inden-1-yl)-7-isopropyl-2-methylpyrazolo[1,5-a]pyrimidine-6-carboxamide] | 2.33 mL/min/kg | 1140 min | – | –
3 | Cc1nn2c(C(C)C)c(C(=O)N[C@H]3CCOc4ccccc43)cnc2c1-c1ccc(F)c(F)c1 [Example 3, (S)—N-(chroman-4-yl)-3-(3,4-difluorophenyl)-7-isopropyl-2-methylpyrazolo[1,5-a]pyrimidine-6-carboxamide] | 3 mL/min/kg | 2250 min | – | –
4 | O=C(N[C@H]1CCOc2ccccc21)c1cnc2c(-c3cc(Cl)cc(Cl)c3)c(F)ccc2c1N1CC(F)C1 [Example 5, (S)—N-(chroman-4-yl)-8-(3,5-dichlorophenyl)-7-fluoro-4-(3-fluoroazetidin-1-yl)quinoline-3-carboxamide] | 1.17 mL/min/kg | 9620 min | – | –
5 | O=C(N[C@H]1CCOc2ccccc21)c1cnc2c(-c3cc(F)cc(F)c3F)c(F)ccc2c1C1CS(=O)(=O)C1 [Example 8, N-[(4S)-3,4-dihydro-2H-chromen-4-yl]-4-(1,1-dioxidothietan-3-yl)-7-fluoro-8-(2,3,5-trifluorophenyl)quinoline-3-carboxamide] | 11.5 mL/min/kg | 2620 min | – | –
6 | Cc1nn2c(C(C)C)c(C(=O)N[C@H]3CCOc4ccccc43)cnc2c1-c1c(F)cccc1Cl [Example 10, (S)-3-(2-chloro-6-fluorophenyl)-N-(chroman-4-yl)-7-isopropyl-2-methylpyrazolo[1,5-a]pyrimidine-6-carboxamide] | 6.17 mL/min/kg | 1480 min | – | –
7 | O=C(N[C@H]1CCOc2ccccc21)c1cnc2c(-c3cc(F)cc(F)c3F)cccc2c1C1COC1 [Example 11, (S)—N-(chroman-4-yl)-4-(oxetan-3-yl)-8-(2,3,5-trifluorophenyl)quinoline-3-carboxamide] | 5 mL/min/kg | 2870 min | – | –
8 | O=C(N[C@H]1CCOc2ccccc21)c1cnc2c(-c3cc(F)cc(F)c3F)cccc2c1C1CCOCC1 [Example 12, N-[(4S)-3,4-Dihydro-2H-chromen-4-yl]-4-(tetrahydro-2H-pyran-4-yl)-8-(2,3,5-trifluorophenyl)quinoline-3-carboxamide] | 17 mL/min/kg | 1290 min | – | –
9 | O=C(N[C@H]1CCOc2ccccc21)c1cnc2c(-c3cc(F)cc(F)c3F)c(F)ccc2c1C1CCOCC1 [Example 14] | 3 mL/min/kg | 2610 min | – | –
10 | (S)—N-(2,3-Dihydro-1H-inden-1-yl)-3-(3-fluorophenyl)-7-isopropyl-2-methylpyrazolo[1,5-a]pyrimidine-6-carboxamide [Example 13] | – | – | 0.56 L/h/kg | 45.43 h
